In a melting point compilation (Tetko et al.; mined from patent text by program, amines drawn as free bases though some values may be those of a salt):

COc1cscc1C(=O)NN gave a melting point of 91 to 92 °C.
With CCN1C(=O)C=C(c2ccc(Cl)c(Cl)c2)C1=O the melting point was 138 to 141 °C.
With CC(C)OC(=O)Cn1c(=O)n(C)c(=O)n(-c2cc(-n3c(=O)n4n(c3=S)CCCC4)c(F)cc2Cl)c1=O the melting point was 136 to 142 °C.
Work on CC(=O)c1ccc(Sc2cccc(Br)c2)cc1 yielded a melting point of 54 to 57 °C.
CC(C#N)c1cccc2c(-c3ccccc3)onc12 (stereo unspecified) showed a melting point of 109 to 112 °C.
COc1cc(C(=O)N2CCN(C(=O)OC(C)(C)C)C(C(=O)N(C)C)C2)cc(OC)c1OC (stereo unspecified) gave a melting point of 146 to 147 °C.
Work on CCCCNC(=O)[C@@H]1Cc2ccccc2CN1 yielded a melting point of 58 to 60 °C.
Compound CC1CC(=O)c2cc(Cl)ccc2O1 (stereo unspecified) has a melting point of 100 to 102 °C.
Compound COc1ccc2cncc(CCl)c2c1 has a melting point of 256 to 257 °C.
In the case of COc1cc(CCNc2ncnc3c(F)ccc(F)c23)ccc1Oc1ccc(C(F)(F)F)cn1, the melting point is reported as 119 to 121 °C.
Work on CCNC(=O)Nc1nc2cc(-c3cccnc3)cc(C(=O)NC)n2n1 yielded a melting point greater than 300 °C.
With C#CCn1ccc(C(=O)OC)c1C=O the melting point was 76 °C.
Compound COC(=O)CS(=O)(=O)N1CC=C(c2ccc(-c3ccccc3)cc2)CC1 has a melting point of 182 to 183 °C.
Cc1c(N2CC[C@@H](C3(N)CC3)C2)ccc2c(=O)c(C(=O)O)cn(C3CC3)c12 showed a melting point of 230 to 233 °C.
CC(=O)Oc1cc([N+](=O)[O-])cc2c1OC(C)(C)C2 gave a melting point of 142 to 143 °C.
Compound COc1ccc2cc(Br)ccc2n1 has a melting point of 93 to 96 °C.
With CS(=O)(=O)c1ccc(C2=C(c3ccc(F)cc3)CC3(CC3)C2)cc1 the melting point was 140 to 142 °C.
Compound O=C(O)CON=CCBr has a melting point of 56 to 58 °C.
CCCn1nc2c(N)nc3ccccc3c2c1CC gave a melting point of 219 to 220 °C.
For COC(=O)c1cc(OP(=S)(OC)OC)c(C(=O)OC)s1, the melting point was 71 °C.
Work on O=C(Oc1ccc(F)cc1)c1cc(C(F)(F)F)cc(C(F)(F)F)c1 yielded a melting point of 60 to 61 °C.
With CCCCCCCCCCCCc1c[nH]cn1 the melting point was 69 to 71 °C.
O=S1(=O)c2ccccc2N(c2ccc(OCc3ccccc3)cc2)c2ccccc21 showed a melting point of 203 to 208 °C.
In the case of N#CNC(=O)C12CC3CC(CC(C3)C1)C2, the melting point is reported as 164 to 166 °C.
Work on CN1C(=O)CN(C(=O)Cl)C(c2ccccc2)c2cc(Cl)ccc21 (single isomer, unassigned; (-)) yielded a melting point of 201 to 204 °C.
CC(C)(Oc1ccc(-c2ccc(CCNC(=O)c3ccccc3)cc2)cc1)C(=O)O showed a melting point of 179 °C.
CC(=O)OCC(=O)NCc1cccc2c1C(=O)N(C1CCC(=O)NC1=O)C2=O (stereo unspecified) showed a melting point of 108 to 110 °C.
Compound O=C(O)c1cc2c(cn1)[nH]c1ccccc12 has a melting point of 307 to 309 °C.
C=C(Cc1ccc(-c2ccccc2)cc1)CN1CCC(C)CC1 gave a melting point of 53 °C.
NC(=O)C1(CCC(=O)O)c2ccccc2-c2ccccc21 showed a melting point of 191 to 192 °C.
Work on CSCCC(=O)N(C)c1sc(-c2cncc(F)c2)nc1C#N yielded a melting point of 97 to 98 °C.
For CCC(C)NC(=O)Nc1cc(-c2c(-c3ccc(F)c(C)c3)nc3cccnn23)ccn1 (stereo unspecified), the melting point was 196 to 197 °C.
With Cn1c(=O)oc2cc(C(O)CBr)cnc21 (stereo unspecified) the melting point was 127 to 129 °C.
With CCOCc1c(-c2ccc(OC(F)F)c(OC3CC3)c2)[nH]c2cn[nH]c(=O)c12 the melting point was 141 to 143 °C.
For COc1ccc(CCOc2cncc(-c3cccc(C(=O)O)c3)c2)cc1OC, the melting point was 181 to 182 °C.
In the case of NC[C@H]1CNc2cccc(-c3ccccc3Cl)c2O1, the melting point is reported as 135 °C.
CCOC(=O)C=CNC(=O)Nc1ccc(Cl)c(C(=O)OCC)c1 gave a melting point of 116 to 117 °C.
Cc1c(NC(=O)NCCCO)c(C)c2c(c1-c1ccccc1)OCC2c1ccc(C(C)C)cc1 (stereo unspecified) gave a melting point of 145 to 146 °C.
Compound Cc1cc(-c2nc(C(F)(F)F)cn2-c2ccc(S(C)(=O)=O)c(F)c2)ccc1-c1cscn1 has a melting point of 197 to 198 °C.
For NC1CCN(c2cnccn2)CC1, the melting point was 158 to 160 °C.
CC1(C)CC(=O)c2cc3c(cc2O1)OCO3 showed a melting point of 61 to 62 °C.
O=C(O)COc1ccc2c(c1)-c1nc(S(=O)(=O)CC(c3ccccc3)c3ccccc3)sc1CC2 showed a melting point of 183 to 185 °C.
For c1ccc(-c2cn(C3CCCN4CCCCC34)nn2)cc1 (stereo unspecified), the melting point was 150 °C.
For CC(C)(C)c1cc(SC2CC(=O)N(CCCCCCN3C(=O)CC(Sc4cc(C(C)(C)C)c(O)c(C(C)(C)C)c4)C3=O)C2=O)cc(C(C)(C)C)c1O (stereo unspecified), the melting point was 69 to 72 °C.
For CN(C)CCOc1ccc(N2C(=O)C=C3CCCCC32)cc1 (stereo unspecified), the melting point was 90 °C.
With COc1cc2[nH]c(N(C)Cc3cccc(C4=NCCN4C)c3)nc(=O)c2c(C)c1OC the melting point was 145 to 148 °C.
FC(F)c1nc2ccccc2n1-c1nc(NCc2ccccn2)nc(N2CCOCC2)n1 gave a melting point of 192 to 193 °C.
For CC(=O)Oc1ccc(-n2c(-c3ccccc3)cc3c2CCCC3)cc1C(=O)O, the melting point was 155 to 162 °C.
O=c1[nH]c2cc(Cl)ccc2n1-c1cc(Cl)ccc1O gave a melting point of 256 to 257 °C.
CC(C)(C)Sc1cnn(-c2c(Cl)cc(C(F)(F)F)cc2Cl)c1N gave a melting point of 129 °C.
O=C1c2ccccc2C(=O)N1CCc1nnc2n1-c1ccc(Cl)cc1C(c1ccccc1)=NC2 showed a melting point of 133 to 134 °C.
Cc1cc2c(N)c([N+](=O)[O-])cnc2s1 showed a melting point of 238 to 240 °C.
Cc1c(NC(=O)CC(C)(C)C)c(C)c2c(c1C(=O)O)OCC2c1ccc(C(C)C)cc1 (stereo unspecified) gave a melting point of 194 to 195 °C.
Work on COc1cc(Cc2cnc(N)nc2N)ccc1N yielded a melting point of 210 to 212 °C.
COC(=O)CSC(c1ccccc1Cl)c1ccccc1Cl gave a melting point of 90 to 92 °C.
With O=Cc1cc(-c2ccc(F)cc2Cl)ccc1OC(F)(F)F the melting point was 64 °C.
With CCOCCOCCOc1ccc(C(=O)CN(Cc2ccccc2)Cc2ccccc2)cc1C(N)=O the melting point was 91.5 to 92.5 °C.
COc1ccc2c(c1)CN(C#N)CC2c1cc(OC)c(OC)c(OC)c1 (stereo unspecified) showed a melting point of 113 to 116 °C.
Compound COc1ccc(F)cc1C(C)(C)CC(O)(Cc1cccc(C(N)=O)c1)C(F)(F)F (stereo unspecified) has a melting point of 70 to 75 °C.
Work on CCCCCCCN(Cc1ccc(C(C)(C)C)cc1)C(Nc1c(C)cc(C)cc1C)=C1C(=O)COC1=O yielded a melting point of 141 to 143 °C.
In the case of Clc1nnnc(-c2cccc3ccccc23)c1Cl, the melting point is reported as 165 to 170 °C.
CCOC(=O)Nc1ccc(C(=O)OCC)nc1 gave a melting point of 177 to 178 °C.
CCCCC1=C(Cl)C(=O)c2ccccc2C1=O showed a melting point of 69 to 70 °C.
Cn1ncc(C(=O)N2CC(F)C2)c1C(=O)Nc1ccn2nc(-c3cccnc3)nc2c1 gave a melting point of 247 to 249 °C.
Compound Cn1cncc1COCC(O)c1ccccc1 (stereo unspecified) has a melting point of 102 to 105 °C.
CNC(=O)c1ccc(NCC(=O)O)cc1 gave a melting point of 234 °C.
For COCCc1nc2c(N)nc3cc(OCc4cccc(C#N)c4)ccc3c2n1CC(C)(C)O, the melting point was 196 to 197 °C.
Work on Cc1ccc(N2CCN(CCCN3c4cccc5cccc(c45)S3(=O)=O)CC2)cc1 yielded a melting point of 136 °C.
Cn1nc(Cl)cc(Nc2ccncn2)c1=O showed a melting point of 233 to 235 °C.
Work on Cc1cc(Cl)cc(NC(=O)Cc2ccc(OC3(C(=O)O)CCCC3C)cc2)c1 (stereo unspecified) yielded a melting point of 180 to 182 °C.
Nc1nc2c(Cc3ccsc3)c(I)[nH]c2c(=O)[nH]1 gave a melting point greater than 260 °C.
CC(c1oc2ccccc2c(=O)c1-c1cccc(F)c1)n1nc(-c2ccc(OC(F)(F)F)cc2)c2c(N)ncnc21 (stereo unspecified) gave a melting point of 224 to 226 °C.
In the case of CNC(=O)C(=NOC)c1cccc(Cl)c1COc1cc(C(F)(F)F)nc(OC(C)C)n1, the melting point is reported as 116 to 118 °C.
With CC(C)(C)OC(=O)NCc1ccc2c(Br)c(O)ccc2c1 the melting point was 150 to 152 °C.
c1ccc(-n2c(-c3cccc(OCCN4CCCCC4)c3)nc3ccccc32)cc1 showed a melting point of 68 °C.
With CCOC(=O)c1ccc(CSc2nnc(C)s2)cc1 the melting point was 55 to 58 °C.
For CS(=O)(=O)NCCN1CCC(CO)CC1, the melting point was 81 to 82 °C.
Work on COc1ccc(-c2nc(Cn3cncn3)nc3cc(OC)c(OC)cc23)cc1 yielded a melting point of 206 to 207 °C.
Work on CS(=O)(=O)c1c(Sc2ccccc2)cccc1C(=O)O yielded a melting point of 185 to 186 °C.
In the case of CC(C)n1c(=O)n(C(=O)NCC2CCN(CC3(C(=O)O)CCCC3)CC2)c2ccccc21, the melting point is reported as 165 °C.
Work on Nc1cc(Cl)cc(Nc2ncnc3[nH]cc(C(=O)c4ccccc4)c23)c1 yielded a melting point greater than 300 °C.
With CC(=O)Oc1ccc(-c2cc(=O)c3cc(Br)cc([N+](=O)[O-])c3o2)cc1F the melting point was 236 to 238 °C.
COCCN1CCn2c1nc(C(=O)NCc1ccc(F)cc1)c(O)c2=O gave a melting point of 166 °C.
COc1ccc(C)cc1NC(=O)Nc1ccc(N2CCN(C(=O)Nc3ccc(OCCO)cc3Cl)C(C)C2)cc1 (stereo unspecified) showed a melting point of 129 to 131 °C.
For CCCCc1c(-c2ccccc2)nc(N)nc1-c1ccccc1, the melting point was 154 to 155 °C.
Work on CC(O)CC1NC(=O)c2ccccc21 (stereo unspecified) yielded a melting point of 100 to 102 °C.
Compound CC(C)C[C@H](NC(=O)OCC1c2ccccc2-c2ccccc21)C(=O)N[C@H]1CCOC1OCc1ccc2ccccc2c1 (stereo partly specified) has a melting point of 79 to 80 °C.
For CC1(C(=O)N2CCC(n3c(=O)[nH]c4ccccc43)CC2)OCc2ccccc2-n2cccc21 (stereo unspecified), the melting point was 208 to 210 °C.
COc1cc(C=CC(=O)c2ccccc2F)cc(OC)c1 gave a melting point of 71.6 to 72.5 °C.
In the case of CCCn1c(CCOC)nc2c(N)nc3cc(OC4CCOC4)ccc3c21 (stereo unspecified), the melting point is reported as 192 to 194 °C.
With NS(=O)(=O)c1ccc(-c2noc(-c3ncn4c(C(F)(F)F)cc(-c5ccc(C(F)(F)F)cc5)nc34)n2)s1 the melting point was 295 °C.
With CC(=Cc1ccc([N+](=O)[O-])cc1)C(=O)Oc1ccc(Cl)cc1 the melting point was 111 to 112 °C.
Work on COc1cc2oc(=O)c(CCOS(C)(=O)=O)c(C)c2c(OC)c1OC yielded a melting point of 114 to 115 °C.
In the case of CN1CCN(c2cccc3ccc(Nc4nc(Cc5ccccc5)cs4)cc23)CC1, the melting point is reported as 157 to 160 °C.
CCN(SCc1nccs1)C(=C[N+](=O)[O-])SC gave a melting point of 63 to 64 °C.
Work on Cc1c(F)c(N)c(Cl)c2c1c(=O)c(C(=O)O)cn2-c1cc(N)c(F)cc1F yielded a melting point greater than 280 °C.
In the case of COc1cc(N)c(Cl)cc1C(=O)N[C@H]1CCN(CC#N)C[C@H]1OC (relative stereo), the melting point is reported as 130 °C.
For CCCCCP(=S)(CCCCC)NP(=S)(CCCCC)CCCCC, the melting point was 59 to 63.5 °C.
For Nc1ccc2ccc(-c3ccc(Cl)c(Cl)c3)nc2n1, the melting point was 210 °C.
Compound COc1ccc(-c2coc3ccc(-c4nnc(SCc5cccc(Cl)c5)o4)cc23)cc1 has a melting point of 155 to 156 °C.
Work on CC(=O)Nc1cc(C)c2c(C)c(C)[nH]c2c1 yielded a melting point of 255 °C.
